Legend:
[1] = test system: fibroblasts (PHF) co-cultured with tumor cells of human endometrial carcinoma (AN3-CA); experiment: Marker expression (IHC) in PHF co-cultured with AN3-CA tumor cells; assay type: cell-based; details: co-culture with AN3-CA; SP 1 μM + antagonist 1 μM; 48 h;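 further: cultured in fresh healthy-donor blood plasma with added antibiotic-antimycotic, run in six replicates, values give percent of fibroblasts positive for each marker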
Description: (§1) All cultures were maintained 48 hours, following which the same cells were included in paraffin blocks for subsequent analysis of the expression of different markers by immunohistochemistry (see Example 1). […] All experiments were carried out sixfold. Analyzed markers in fibroblast cells (stromal cells) were: TGF-α, TGF-β1, TGF-β2, TGF-β3, SPARC, MMP-3, MMP-7, MMP-9, MMP-11, MMP-13 and MMP-14.

[2] = test system: co-cultures of tumor cells-endothelial cells (C-12210); experiment: Inhibition/survival in co-cultures of primary human tumor cells and endothelial cells; assay type: cell-based; details: survival in reference to control, SP 1 μM, Vestipitant 1 μM
Description: To check that the interaction of primary tumor cells extracted directly from human with human vascular endothelial cells, promotes the survival of both cell types, co-cultures were performed microvascular endothelial cells from juvenile foreskins (PromoCell GmbH, Sickingenstraβe 63/65, D-69126 Heidelberg, Germany; reference C-12210) with tumor cells obtained directly from primary human tumors.
A total of 6 wells containing tumor cells were used as control for survival. Another 6 wells containing tumor cells were cultured with addition of endothelial cells.
Subsequently, cells were embedded in paraffin for analysis by immunohistochemistry. In order to identify the different cell types and quantity of them [They were labelled with primary antibodies specific for human endothelial cells (anti-CD31), carcinoma cells (Anti-Cytokeratins Spread Spectrum), glioma (Anti-glial fibrillary acidic protein), fibrosarcoma and malignant fibrous histiocytoma (Anti-Smooth Muscle Actin), Ewing sarcoma (Anti-CD99), Melanoma (Anti-HMB45), leukemias and lymphomas (Anti-Common Antigen Leucitario) and myeloma (anti CD 138). All antibodies are distributed by Dako and were used at the same concentration which is supplied (supplied pre-diluted—“ready to use”).

polymorphonuclear cells = experiment: Marker expression (immunohistochemistry) in polymorphonuclear blood cells with SP alone or with NK1 antagonists; assay type: cell-based, human; details: SP 1 μM + antagonist 1 μM; 48 h
Description: (§2) Briefly, heparinized blood from healthy donors was centrifuged so as to separate the various components thereof. Red blood cells remained at the bottom of the tube. Above them was a small white layer composed of the white blood cells and above, on top of the tube, the blood plasma. The layer of white cells was distributed in a culture plate of 24 wells by adding in each the same concentration of blood plasma from the same donor, supplemented with 1% antibiotic-antimycotic (Invitrogen). In each well, approximately 1000 cells (PHF) skin from the dermis were further added, obtained as previously described in Example 2. […] After 48 hours of incubation, cells were collected and embedded in paraffin for expression analysis by immunohistochemical techniques (as described in Example 1).
(§3) The expression of TGF molecular markers (anti-TGF 2, SAB4502956) and NF-kB (anti-NF-kB, SAB4501992) using specific antibodies against them were analyzed. All antibodies used were rabbit polyclonal antibodies obtained from Sigma Aldrich and were used at a concentration of 1/1000. All experiments were carried out sixfold.

[3] = test system: fibroblasts (PHF) co-cultured with human fibrosarcoma tumor cells (HT-1080); experiment: Marker expression (IHC) in PHF co-cultured with HT-1080 tumor cells; assay type: cell-based; details: co-culture with HT-1080; SP 1 μM + antagonist 1 μM; 48 h;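 further: cultures grown in fresh human plasma from a healthy donor, six replicates, value is percent of fibroblasts positive for the marker, compared with fibroblasts cultured without tumor cells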
Description: as §1

[4] = test system: fibroblasts (PHF) co-cultured with tumor cells of human gastric adenocarcinoma (23132/87); experiment: Marker expression (IHC) in PHF co-cultured with 23132/87 tumor cells; assay type: cell-based; details: co-culture with 23132/87; SP 1 μM + antagonist 1 μM; 48 h;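 further: cultures grown in fresh plasma from a healthy human donor, values give the percentage of PHF fibroblasts positive for the marker, each experiment run in six replicates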
Description: (§4) All cultures were maintained 48 hours, following which the same cells were included in paraffin blocks for subsequent analysis of the expression of different markers by immunohistochemistry (see Example 1). The primary antibodies used to perform immunohistochemical assays and their concentration are detailed in Example 2. All experiments were carried out sixfold. Analyzed markers in fibroblast cells (stromal cells) were: TGF-α, TGF-β1, TGF-β2, TGF-β3, SPARC, MMP-3, MMP-7, MMP-9, MMP-11, MMP-13 and MMP-14.

[5] = test system: fibroblasts of tumors produced by human rhabdomyosarcoma tumor line (A-204); experiment: Marker expression (IHC) in fibroblasts of tumor or peritumoral area, mouse model, A-204; assay type: in vivo; details: A-204 tumors in mice, 30 mg/kg/day oral, 7 days
Description: In vitro tests conducted in Example 5 are now carried out in an experimental model in mice in vivo. […] Subsequently, the expression in fibroblasts tumoral and peritumoral area of molecular markers associated with progression and maintenance of tumors: TGF-α, TGF-β1, TGF-β2, TGF-β3, MMP-7, MMP-11, MMP-14 were analyzed by immunohistochemistry.
Were injected with 2×10^7 cells tumors (corresponding, in each case to each of the tumor types as specified in Table 9) in 200 of PBS subcutaneously μl. […] Mice were randomized into two groups when the tumors reached a volume of 75 mm^3 One group was treated with non-peptide receptor antagonists NK1 and the other with placebo 200μ1. […] Tumors and samples of non-neoplastic stromal areas remote from the tumor were halved, formalin fixed (4%) and then were included in paraffin blocks for analysis by immunohistochemistry.
The expression on fibroblast cells obtained in the animal model was analyzed by immunohistochemistry, of the above markers: TGF-α, TGF-β1, TGF-β2, TGF-β3, MMP-7, MMP-1 1, MMP-14MP-14. Tables 32 to 35 depict the type of label used and the average percentage of fibroblasts present in non-tumor areas, tumor and peritumoral (±SD) which were expressing the marker shown in each of the tumor types developed from of the different cell lines used. This process was realized in mice treated with non-peptide antagonists of NK1 receptor and in untreated animals (control).

mononuclear cells = experiment: Marker expression (immunohistochemistry) in mononuclear blood cells with SP alone or with NK1 antagonists; assay type: cell-based, human; details: SP 1 μM + antagonist 1 μM; 48 h
Description: as §2, §3

[6] = test system: fibroblasts (PHF) co-cultured with tumor cells of human Burkitt lymphoma (CA-46); experiment: Marker expression (IHC) in PHF co-cultured with CA-46 tumor cells; assay type: cell-based; details: PHF co-cultured with CA-46 + SP + NK1 antagonist;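 further: percentage of PHF fibroblasts positive for each marker, cultures grown in fresh human plasma from a healthy donor, six replicates, compared with fibroblasts cultured alone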
Description: as §4

[7] = Carcinoma of lung, (Small cell carcinoma in Table 36)
[8] = Carcinoma of lung, Non Small Cell Carcinoma in Table 36
[9] = Carcinoma of thyroid, (Follicular Carcinoma in Table 36)
[10] = Carcinoma of thyroid, (Papillary Carcinoma in Table 36)

Cc1cc(F)ccc1[C@H]1CNCCN1C(=O)N(C)[C@H](C)c1cc(C(F)(F)F)cc(C(F)(F)F)c1 [Vestipitant]
PHF cells expressing MMP-3 [1]: 0%
PHF cells expressing MMP-7 [1]: 0%
PHF cells expressing MMP-9 [1]: 0%
PHF cells expressing MMP-11 [1]: 0%
PHF cells expressing MMP-13 [1]: 0%
PHF cells expressing MMP-14 [1]: 0%
PHF cells expressing SPARC [1]: 0%
PHF cells expressing TGF-α [1]: 0%
PHF cells expressing TGF-β1 [1]: 0%
PHF cells expressing TGF-β2 [1]: 0%
PHF cells expressing TGF-β3 [1]: 0%
Endothelial cells co-cultured with tumor cells + SP + Vestipitant ([2]; Carcinoma of Colon): 54 ± 3%
Tumor cells co-cultured with endothelial cells + SP + Vestipitant ([2]; Carcinoma of Colon): 65 ± 6%
Endothelial cells co-cultured with tumor cells + SP + Vestipitant ([2]; Carcinoma of Pancreas): 55 ± 3%
Tumor cells co-cultured with endothelial cells + SP + Vestipitant ([2]; Carcinoma of Pancreas): 47 ± 5%
Endothelial cells co-cultured with tumor cells + SP + Vestipitant ([2]; Carcinoma of breast): 55 ± 4%
Tumor cells co-cultured with endothelial cells + SP + Vestipitant ([2]; Carcinoma of breast): 55 ± 5%
Endothelial cells co-cultured with tumor cells + SP + Vestipitant ([2]; Carcinoma of cervix): 47 ± 4%
Tumor cells co-cultured with endothelial cells + SP + Vestipitant ([2]; Carcinoma of cervix): 47 ± 4%
Endothelial cells co-cultured with tumor cells + SP + Vestipitant ([2]; Carcinoma of endometrial): 56 ± 5%
Tumor cells co-cultured with endothelial cells + SP + Vestipitant ([2]; Carcinoma of endometrial): 47 ± 6%
Endothelial cells co-cultured with tumor cells + SP + Vestipitant [2, 7]: 45 ± 6%
Tumor cells co-cultured with endothelial cells + SP + Vestipitant [2, 7]: 67 ± 5%
Endothelial cells co-cultured with tumor cells + SP + Vestipitant [2, 8]: 45 ± 3%
Tumor cells co-cultured with endothelial cells + SP + Vestipitant [2, 8]: 64 ± 6%
Endothelial cells co-cultured with tumor cells + SP + Vestipitant ([2]; Carcinoma of ovarian): 44 ± 4%
Tumor cells co-cultured with endothelial cells + SP + Vestipitant ([2]; Carcinoma of ovarian): 57 ± 6%
Endothelial cells co-cultured with tumor cells + SP + Vestipitant ([2]; Carcinoma of prostate): 51 ± 6%
Tumor cells co-cultured with endothelial cells + SP + Vestipitant ([2]; Carcinoma of prostate): 48 ± 6%
Endothelial cells co-cultured with tumor cells + SP + Vestipitant ([2]; Carcinoma of stomach): 62 ± 3%
Tumor cells co-cultured with endothelial cells + SP + Vestipitant ([2]; Carcinoma of stomach): 56 ± 4%
Endothelial cells co-cultured with tumor cells + SP + Vestipitant [2, 9]: 46 ± 4%
Tumor cells co-cultured with endothelial cells + SP + Vestipitant [2, 9]: 47 ± 5%
Endothelial cells co-cultured with tumor cells + SP + Vestipitant [2, 10]: 52 ± 5%
Tumor cells co-cultured with endothelial cells + SP + Vestipitant [2, 10]: 55 ± 6%
Endothelial cells co-cultured with tumor cells + SP + Vestipitant ([2]; Fibrosarcoma): 46 ± 7%
Tumor cells co-cultured with endothelial cells + SP + Vestipitant ([2]; Fibrosarcoma): 56 ± 7%
Endothelial cells co-cultured with tumor cells + SP + Vestipitant ([2]; Glioma): 54 ± 3%
Tumor cells co-cultured with endothelial cells + SP + Vestipitant ([2]; Glioma): 47 ± 5%
Endothelial cells co-cultured with tumor cells + SP + Vestipitant ([2]; Hodgkin's Lymphoma): 47 ± 5%
Tumor cells co-cultured with endothelial cells + SP + Vestipitant ([2]; Hodgkin's Lymphoma): 76 ± 5%
Endothelial cells co-cultured with tumor cells + SP + Vestipitant ([2]; Leukemia B): 47 ± 4%
Tumor cells co-cultured with endothelial cells + SP + Vestipitant ([2]; Leukemia B): 53 ± 5%
Endothelial cells co-cultured with tumor cells + SP + Vestipitant ([2]; Leukemia T): 57 ± 4%
Tumor cells co-cultured with endothelial cells + SP + Vestipitant ([2]; Leukemia T): 56 ± 4%
Endothelial cells co-cultured with tumor cells + SP + Vestipitant ([2]; Malignant fibrous histiocytoma): 53 ± 4%
Tumor cells co-cultured with endothelial cells + SP + Vestipitant ([2]; Malignant fibrous histiocytoma): 46 ± 7%
Endothelial cells co-cultured with tumor cells + SP + Vestipitant ([2]; Melanoma): 55 ± 5%
Tumor cells co-cultured with endothelial cells + SP + Vestipitant ([2]; Melanoma): 44 ± 4%
Endothelial cells co-cultured with tumor cells + SP + Vestipitant ([2]; Myeloma): 56 ± 7%
Tumor cells co-cultured with endothelial cells + SP + Vestipitant ([2]; Myeloma): 66 ± 3%
Endothelial cells co-cultured with tumor cells + SP + Vestipitant ([2]; Neuroblastoma): 46 ± 3%
Tumor cells co-cultured with endothelial cells + SP + Vestipitant ([2]; Neuroblastoma): 56 ± 4%
Endothelial cells co-cultured with tumor cells + SP + Vestipitant ([2]; Non-Hodgkin's Lymphoma B): 65 ± 4%
Tumor cells co-cultured with endothelial cells + SP + Vestipitant ([2]; Non-Hodgkin's Lymphoma B): 43 ± 5%
Endothelial cells co-cultured with tumor cells + SP + Vestipitant ([2]; Non-Hodgkin's Lymphoma T): 48 ± 6%
Tumor cells co-cultured with endothelial cells + SP + Vestipitant ([2]; Non-Hodgkin's Lymphoma T): 81 ± 5%
Endothelial cells co-cultured with tumor cells + SP + Vestipitant ([2]; Renal carcinoma): 54 ± 3%
Tumor cells co-cultured with endothelial cells + SP + Vestipitant ([2]; Renal carcinoma): 54 ± 4%
Endothelial cells co-cultured with tumor cells + SP + Vestipitant ([2]; Sarcoma of Ewing): 46 ± 4%
Tumor cells co-cultured with endothelial cells + SP + Vestipitant ([2]; Sarcoma of Ewing): 47 ± 6%
polymorphonuclear cells expressing NF-kB (polymorphonuclear cells): 0%
polymorphonuclear cells expressing TGF-β (polymorphonuclear cells): 0%
PHF cells expressing MMP-3 [3]: 0%
PHF cells expressing MMP-7 [3]: 0%
PHF cells expressing MMP-9 [3]: 0%
PHF cells expressing MMP-11 [3]: 0%
PHF cells expressing MMP-13 [3]: 0%
PHF cells expressing MMP-14 [3]: 0%
PHF cells expressing SPARC [3]: 0%
PHF cells expressing TGF-α [3]: 0%
PHF cells expressing TGF-β1 [3]: 0%
PHF cells expressing TGF-β2 [3]: 0%
PHF cells expressing TGF-β3 [3]: 0%
PHF cells expressing MMP-3 [4]: 0%
PHF cells expressing MMP-7 [4]: 0%
PHF cells expressing MMP-9 [4]: 0%
PHF cells expressing MMP-11 [4]: 0%
PHF cells expressing MMP-13 [4]: 0%
PHF cells expressing MMP-14 [4]: 0%
PHF cells expressing SPARC [4]: 0%
PHF cells expressing TGF-α [4]: 0%
PHF cells expressing TGF-β1 [4]: 0%
PHF cells expressing TGF-β2 [4]: 0%
PHF cells expressing TGF-β3 [4]: 0%
fibroblasts expressing MMP-7 [5]: 0%
fibroblasts expressing MMP-11 [5]: 0%
fibroblasts expressing MMP-14 [5]: 0%
fibroblasts expressing TGF-α [5]: 0%
fibroblasts expressing TGF-β 1 [5]: 0%
fibroblasts expressing TGF-β 2 [5]: 0%
fibroblasts expressing TGF-β 3 [5]: 0%
mononuclear cells expressing NF-kB (mononuclear cells): 0%
mononuclear cells expressing TGF-β (mononuclear cells): 0%
cells expressing MMP-3 [6]: 0%
cells expressing MMP-7 [6]: 0%
cells expressing MMP-9 [6]: 0%
cells expressing MMP-11 [6]: 0%
cells expressing MMP-13 [6]: 0%
cells expressing MMP-14 [6]: 0%
cells expressing SPARC [6]: 0%
cells expressing TGF-α [6]: 0%
cells expressing TGF-β1 [6]: 0%
cells expressing TGF-β2 [6]: 0%
cells expressing TGF-β3 [6]: 0%

Source: US20180071317A1, “USE OF AGENTS THAT ALTER THE PERITUMORAL ENVIRONMENT FOR THE TREATMENT OF CANCER” (SERVICIO ANDALUZ DE SALUD, priority 2011, published 2018)
